{"source": "patent US8124793B2", "about": "“Derivatives of ethylene methanedisulfonate as cancer chemotherapeutic agents” (priority 2007, dated 2012)", "type_in_all_cases": "cell-based", "key": {"CCRF-CEM": {"system": "CCRF-CEM", "experiment": "NCI screen, growth of human tumor cells: Leukemia CCRF-CEM", "details": "CCRF-CEM (Leukemia), 10^−4 molar", "outline": "(§1)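 At least 60 data points describe each compound tested by NCI. Cancer type, molar concentration in the screen and percent growth make up the recorded data.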"}, "HL-60 (TB)": {"system": "HL-60 (TB)", "experiment": "NCI screen, growth of human tumor cells: Leukemia HL-60 (TB)", "details": "HL-60 (TB) (Leukemia), 10^−4 molar", "description": "(§2) In the NCI screening process, each compound was tested and described by a minimum of 60 data points. The test data include, but are not limited to the type of cancer, the molar concentration used in the screen, and the percent growth of the cancer. In some cases, NMR and elemental analysis were used for structural assignment."}, "MOLT-4": {"system": "MOLT-4", "experiment": "NCI screen, growth of human tumor cells: Leukemia MOLT-4", "details": "MOLT-4 (Leukemia), 10^−4 molar", "outline": "as §1"}, "RPMI-8226": {"system": "RPMI-8226", "experiment": "NCI screen, growth of human tumor cells: Leukemia RPMI-8226", "details": "RPMI-8226 (Leukemia), 10^−4 molar", "outline": "as §1"}, "SR": {"system": "SR", "experiment": "NCI screen, growth of human tumor cells: Leukemia SR", "details": "SR (Leukemia), 10^−4 molar", "outline": "as §1"}, "HOP-62": {"system": "HOP-62", "experiment": "NCI screen, growth of human tumor cells: Non-Small Cell Lung HOP-62", "outline": "as §1"}, "NCI-H522": {"system": "NCI-H522", "experiment": "NCI screen, growth of human tumor cells: Non-Small Cell Lung NCI-H522", "details": "NCI-H522 (Non-Small Cell Lung), 10^−4 molar", "outline": "as §1"}, "NCI-H23": {"system": "NCI-H23", "experiment": "NCI screen, growth of human tumor cells: Non-Small Cell Lung NCI-H23", "details": "NCI-H23 (Non-Small Cell Lung), 10^−4 molar", "outline": "as §1"}, "HCT-116": {"system": "HCT-116", "experiment": "NCI screen, growth of human tumor cells: Colon Cancer HCT-116", "details": "HCT-116 (Colon Cancer), 10^−4 molar", "outline": "as §1"}, "HCT-15": {"system": "HCT-15", "experiment": "NCI screen, growth of human tumor cells: Colon Cancer HCT-15", "details": "HCT-15 (Colon Cancer), 10^−4 molar", "outline": "as §1"}, "KM12": {"system": "KM12", "experiment": "NCI screen, growth of human tumor cells: Colon Cancer KM12", "details": "KM12 (Colon Cancer), 10^−4 molar", "outline": "as §1"}, "SF-268": {"system": "SF-268", "experiment": "NCI screen, growth of human tumor cells: CNS Cancer SF-268", "outline": "as §1"}, "SF-295": {"system": "SF-295", "experiment": "NCI screen, growth of human tumor cells: CNS Cancer SF-295", "outline": "as §1"}, "SF-539": {"system": "SF-539", "experiment": "NCI screen, growth of human tumor cells: CNS Cancer SF-539", "outline": "as §1"}, "SNB-75": {"system": "SNB-75", "experiment": "NCI screen, growth of human tumor cells: CNS Cancer SNB-75", "details": "SNB-75 (CNS Cancer), 10^−4 molar", "outline": "as §1"}, "U-251": {"system": "U-251", "experiment": "NCI screen, growth of human tumor cells: CNS Cancer U-251", "details": "U-251 (CNS Cancer), 10^−4 molar", "outline": "as §1"}, "LOXIMVI": {"system": "LOXIMVI", "experiment": "NCI screen, growth of human tumor cells: Melanoma LOXIMVI", "details": "LOXIMVI (Melanoma), 10^−4 molar", "outline": "as §1"}, "SK-MEL-2": {"system": "SK-MEL-2", "experiment": "NCI screen, growth of human tumor cells: Melanoma SK-MEL-2", "details": "SK-MEL-2 (Melanoma), 10^−4 molar", "outline": "as §1"}, "UACC-62": {"system": "UACC-62", "experiment": "NCI screen, growth of human tumor cells: Melanoma UACC-62", "outline": "as §1"}, "SK-OV-3": {"system": "SK-OV-3", "experiment": "NCI screen, growth of human tumor cells: Ovarian Cancer SK-OV-3", "details": "SK-OV-3 (Ovarian Cancer), 10^−4 molar", "description": "as §2"}, "OVCAR-3": {"system": "OVCAR-3", "experiment": "NCI screen, growth of human tumor cells: Ovarian Cancer OVCAR-3", "details": "OVCAR-3 (Ovarian Cancer), 10^−4 molar", "outline": "as §1"}, "OVCAR-4": {"system": "OVCAR-4", "experiment": "NCI screen, growth of human tumor cells: Ovarian Cancer OVCAR-4", "details": "OVCAR-4 (Ovarian Cancer), 10^−4 molar", "outline": "as §1"}, "786-0": {"system": "786-0", "experiment": "NCI screen, growth of human tumor cells: Renal Cancer 786-0", "details": "786-0 (Renal Cancer), 10^−4 molar", "outline": "as §1"}, "ACHN": {"system": "ACHN", "experiment": "NCI screen, growth of human tumor cells: Renal Cancer ACHN", "details": "ACHN (Renal Cancer), 10^−4 molar", "outline": "as §1"}, "RXF-393": {"system": "RXF-393", "experiment": "NCI screen, growth of human tumor cells: Renal Cancer RXF-393", "details": "RXF-393 (Renal Cancer), 10^−4 molar", "outline": "as §1"}, "SN12C": {"system": "SN12C", "experiment": "NCI screen, growth of human tumor cells: Renal Cancer SN12C", "details": "SN12C (Renal Cancer), 10^−4 molar", "outline": "as §1"}, "CAKI-1": {"system": "CAKI-1", "experiment": "NCI screen, growth of human tumor cells: Renal Cancer CAKI-1", "details": "CAKI-1 (Renal Cancer), 10^−4 molar", "outline": "as §1"}, "MCF 7": {"system": "MCF 7", "experiment": "NCI screen, growth of human tumor cells: Breast Cancer MCF 7", "details": "MCF 7 (Breast Cancer), 10^−4 molar", "outline": "as §1"}, "MCF7/ADR-RES": {"system": "MCF7/ADR-RES", "experiment": "NCI screen, growth of human tumor cells: Breast Cancer MCF7/ADR-RES", "details": "MCF7/ADR-RES", "outline": "as §1"}, "BT-549": {"system": "BT-549", "experiment": "NCI screen, growth of human tumor cells: Breast Cancer BT-549", "outline": "as §1"}, "HS 578T": {"system": "HS 578T", "experiment": "NCI screen, growth of human tumor cells: Breast Cancer HS 578T", "details": "HS 578T (Breast Cancer), 10^−4 molar", "outline": "as §1"}, "T-47D": {"system": "T-47D", "experiment": "NCI screen, growth of human tumor cells: Breast Cancer T-47D", "details": "T-47D (Breast Cancer), 10^−4 molar", "description": "as §2"}, "human cancer cells": {"system": "human cancer cells", "experiment": "NCI screen summary over the cancers tested (negative growth of human cancer cells)", "details": "10^−4 M conc.; cancers with negative growth / cancers tested", "description": "as §2\nThe derivatives in the tables are grouped using the same category as in the tables 1-6."}}}
{"smiles": "N#CCCC1(CCC#N)S(=O)(=O)OCCOS1(=O)=O", "note": "[NSC 665941]", "values": [{"measurement": "percent of growth of human tumor cells", "setting": "CCRF-CEM", "result": 5, "unit": "%"}, {"measurement": "percent of growth of human tumor cells", "setting": "HL-60 (TB)", "result": "−17", "unit": "%"}, {"measurement": "percent of growth of human tumor cells", "setting": "MOLT-4", "result": 6, "unit": "%"}, {"measurement": "percent of growth of human tumor cells", "setting": "RPMI-8226", "result": 24, "unit": "%"}, {"measurement": "percent of growth of human tumor cells", "setting": "SR", "result": 10, "unit": "%"}, {"measurement": "% Growth", "setting": "HOP-62; HOP-62, 10^−4 molar", "result": 16, "unit": "%"}, {"measurement": "% Growth", "setting": "HOP-62; HOP-62, 10^−5 molar", "result": 46, "unit": "%"}, {"measurement": "% Growth", "setting": "HOP-62; HOP-62, 10^−6 molar", "result": 48, "unit": "%"}, {"measurement": "% Growth", "setting": "HOP-62; HOP-62, 10^−7 molar", "result": 25, "unit": "%"}, {"measurement": "% Growth", "setting": "HOP-62; HOP-62, 10^−8 molar", "result": 25, "unit": "%"}, {"measurement": "percent of growth of human tumor cells", "setting": "NCI-H522", "result": 18, "unit": "%"}, {"measurement": "percent of growth of human tumor cells", "setting": "NCI-H23", "result": 25, "unit": "%"}, {"measurement": "percent of growth of human tumor cells", "setting": "HCT-116", "result": 26, "unit": "%"}, {"measurement": "percent of growth of human tumor cells", "setting": "HCT-15", "result": 27, "unit": "%"}, {"measurement": "percent of growth of human tumor cells", "setting": "KM12", "result": 27, "unit": "%"}, {"measurement": "% Growth", "setting": "SF-268; SF-268, 10^−4 molar", "result": 24, "unit": "%"}, {"measurement": "% Growth", "setting": "SF-268; SF-268, 10^−5 molar", "result": 48, "unit": "%"}, {"measurement": "% Growth", "setting": "SF-295; SF-295, 10^−4 molar", "result": 7, "unit": "%"}, {"measurement": "% Growth", "setting": "SF-295; SF-295, 10^−5 molar", "result": 47, "unit": "%"}, {"measurement": "% Growth", "setting": "SF-539; SF-539, 10^−4 molar", "result": "−48", "unit": "%"}, {"measurement": "% Growth", "setting": "SF-539; SF-539, 10^−5 molar", "result": 47, "unit": "%"}, {"measurement": "percent of growth of human tumor cells", "setting": "SNB-75", "result": 28, "unit": "%"}, {"measurement": "percent of growth of human tumor cells", "setting": "U-251", "result": 20, "unit": "%"}, {"measurement": "percent of growth of human tumor cells", "setting": "LOXIMVI", "result": 5, "unit": "%"}, {"measurement": "percent of growth of human tumor cells", "setting": "SK-MEL-2", "result": 26, "unit": "%"}, {"measurement": "% Growth", "setting": "UACC-62; UACC-62, 10^−4 molar", "result": 9, "unit": "%"}, {"measurement": "% Growth", "setting": "UACC-62; UACC-62, 10^−5 molar", "result": 49, "unit": "%"}, {"measurement": "percent of growth of human tumor cells", "setting": "SK-OV-3", "result": 28, "unit": "%"}, {"measurement": "percent of growth of human tumor cells", "setting": "OVCAR-3", "result": 12, "unit": "%"}, {"measurement": "percent of growth of human tumor cells", "setting": "OVCAR-4", "result": 4, "unit": "%"}, {"measurement": "percent of growth of human tumor cells", "setting": "786-0", "result": 6, "unit": "%"}, {"measurement": "percent of growth of human tumor cells", "setting": "ACHN", "result": 13, "unit": "%"}, {"measurement": "percent of growth of human tumor cells", "setting": "RXF-393", "result": 23, "unit": "%"}, {"measurement": "percent of growth of human tumor cells", "setting": "SN12C", "result": 15, "unit": "%"}, {"measurement": "percent of growth of human tumor cells", "setting": "CAKI-1", "result": 28, "unit": "%"}, {"measurement": "percent of growth of human tumor cells", "setting": "MCF 7", "result": 18, "unit": "%"}, {"measurement": "% Growth", "setting": "MCF7/ADR-RES; 10^−4 molar", "result": 1, "unit": "%"}, {"measurement": "% Growth", "setting": "MCF7/ADR-RES; 10^−5 molar", "result": 63, "unit": "%"}, {"measurement": "% Growth", "setting": "MCF7/ADR-RES; 10^−6 molar", "result": 69, "unit": "%"}, {"measurement": "% Growth", "setting": "MCF7/ADR-RES; 10^−7 molar", "result": 68, "unit": "%"}, {"measurement": "% Growth", "setting": "MCF7/ADR-RES; 10^−8 molar", "result": 56, "unit": "%"}, {"measurement": "percent of growth of human tumor cells", "setting": "BT-549; BT-549 (Breast Cancer), 10^−4 molar", "result": 18, "unit": "%"}, {"measurement": "% Growth", "setting": "BT-549; BT-549, 10^−4 molar", "result": 18, "unit": "%"}, {"measurement": "% Growth", "setting": "BT-549; BT-549, 10^−5 molar", "result": 33, "unit": "%"}, {"measurement": "percent of growth of human tumor cells", "setting": "HS 578T", "result": "−8", "unit": "%"}, {"measurement": "percent of growth of human tumor cells", "setting": "T-47D", "result": 25, "unit": "%"}, {"measurement": "Percentage of cancers showing negative growth cancers tested", "setting": "human cancer cells", "result": "10^−4 M conc. = 3/32 = 9%"}]}
